Test results taken from the NIST ThermoML archive (doi:10.1016/j.tca.2016.03.003).
Numbers after ± are expanded uncertainties.

Tests used:
[1] = DSC
[2] = Molar enthalpy of transition or fusion; conditions: DSC

Row | SMILES | Triple point temperature ([1]; Crystal 1) [K] | Triple point temperature ([1]; Crystal 2) [K] | Triple point temperature ([1]; Metastable crystal) [K] | Triple point temperature ([1]; Crystal 3) [K] | Triple point temperature ([1]; Crystal 4) [K] | Molar enthalpy of transition or fusion ([2]; Crystal 1) [kJ/mol] | Molar enthalpy of transition or fusion ([2]; Crystal 2) [kJ/mol]
1 | ClC(Cl)(Cl)Cl [tetrachloromethane] | 250.4 ± 1.2 | 226.1 ± 1.2 | 245.2 ± 1.2 | – | – | – | –
2 | CC(C)(C)Cl [2-chloro-2-methylpropane] | 244.4 ± 1.2 | 219.5 ± 1.2 | – | 217.7 ± 1.2 | 184.8 ± 1.2 | – | –
3 | CC(C)(C)CO [2,2-dimethyl-1-propanol] | 329.2 ± 1.2 | 237.5 ± 1.2 | – | – | – | 3.92 ± 0.48 | 4.15 ± 0.48
